Source: paper PMC11912270, “Synthesis and SAR Studies of Acyl-Thiourea Platinum(II) Complexes Yield Analogs with Dual-Stage Antiplasmodium Activity” (ACS Medicinal Chemistry Letters, 2025)
Where “and” joins values, the source holds several entries; their conditions need not be identical. Equal values may be shown once. Read-outs that look alike come from different tables or passages of the source.

How the values were obtained:
[1] = Kinetic solubility by HPLC (pH 6.5); conditions: pH 6.5; for Aqueous solubility pH 6.5: kinetic, HPLC
Experimental: 1.7. Kinetic solubility by HPLC (pH 6.5)
Solubility was measured at pH 6.5 using an adapted miniaturized shake-flask method, in 96-well plate format.4,5 Briefly, 4 µL of a 10 mM stock in DMSO was added to a 96-well plate and evaporated using a GeneVac system. Phosphate buffer pH 6.5 was then added to the wells […]
At the end of this incubation, the […]
in the analysis plate. Analysis was then performed by HPLC-DAD and the solubility of each sample was determined from the corresponding calibration curve. […]

Cyclic voltammetry = assay type: physicochemical; conditions: for Epa1: anodic peak potential; for Epa1 / Epc1: 0.1 V/s; for Epc1: cathodic peak potential
Excerpt: It is known that Fe^2+/Fe^3+ redox chemistry has an important role in the bioactivity of ferrocene derivatives.[33] The production of reactive oxygen species (ROS) is one of the modes of action of ferroquine and other ferrocene derivatives[34] and is linked to the correlation between their bioactivity and electrochemical behavior. We determined whether a similar correlation could be made for the mixed-ligand platinum(II) complexes reported herein given that metal centers have the potential to be oxidized and reduced. The electrochemistry of the complexes was studied using cyclic voltammetry (CV), which uses a triangular potential waveform. The CV experiments were performed in either dry MeOH or DMF containing tetrabutylammonium chloride (TBACl) as the supporting electrolyte. The working electrode was glassy carbon with a platinum wire as the counter electrode and Ag/AgCl as the reference. The anodic (Epa) and cathodic (Epc) peak potentials at 0.1 V/s and half-wave potentials (E1/2) were measured (Table 3). All of the tested complexes undergo reversible one-electron Pt^2+/Pt^+ reductions (Figures S38–S46). Complexes C2, C4, and C8 undergo a second nonreversible reduction (Epc2), which is most likely ligand-based and linked to reductions of the substituent on the bpy. Looking at SAR2, the more electron-withdrawing the substituent, the […] the E1/2 (V vs Fe/Fe^+) value was. This trend was expected, as a more electron-withdrawing substituent reduces the electron density around the metal center, making it easier for the metal to be reduced from Pt^2+ to Pt^+. […] This is also the case for other bpy-containing platinum(II) complexes that only undergo reductions.[35],[36] […]
For the cyclic voltammetry experiments a solution of the test compound (1 x 10-3) in DMSO (3 mL) is added to the electrolyte solution (0.1 M tetrabutylammonium chloride (TBACl) in DMSO). The electrochemical measurements were obtained using a Basi Epsilon Eclipse Electrochemical Analyzer Potentiostat and the CV graphs were generated using Excel. The working electrode was glassy carbon (GC) with platinum wire as the counter electrode (CE) and Ag/AgCl as the reference. […]

ABS parasites = experiment: Dual point activity against ABS parasites; assay type: cell-based, Plasmodium falciparum; conditions: single biological repeat
Excerpt: Table S2: Dual point activity of platinum(II) complexes against ABS parasites, early- and late-
stage gametocytes. Values are averaged from technical triplicates performed for a single

[2] = test system: Chinese hamster ovary (CHO) cell line; experiment: MTT cytotoxicity assay; assay type: cell-based; conditions: cytotoxicity, MTT, 48 h; N, n = 1, 3; read-out: CHO IC50
Experimental: 1.6.In vitro cytotoxicity assay
A 3-(4,5-dimethylthiazol-2-yl)-2,5-diphenyltetrazoliumbromide (MTT) assay was used to screen the metal complexes against the mammalian Chinese hamster ovarian (CHO) cell line.
A stock solution of each compound (2 mg/mL) in DMSO was prepared and kept at -20 °C until needed. Emetine was used as a reference drug. A starting concentration of 100 µg/mL was used, and serially diluted ten-fold using a complete medium to give the lowest concentration of 0.001 µg/mL (6 dilutions). The plates containing the CHO cells under drug pressure were […]
Plates containing the drug and cell suspension were developed by adding 25 μL of sterile MTT (Thermo Fisher Scientific) (25 µL) to each well, followed by 4 h […]
of incubation at room temperature in the dark. The plates were then centrifuged, and the supernatant was removed via aspiration. Sample absorbance was read at a wavelength of 540 […]
analysis via GraphPad Prism v.4.0 software. The IC50 values were determined for each compound were determined from the dose-response curves. […]

[3] = test system: early-stage gametocytes (NF54-PfS16-GFP-Luc); experiment: Luciferase reporter assay, early-stage gametocytes; assay type: cell-based, Plasmodium falciparum; conditions: for EG (% inhibition) 1 µM / EG (% inhibition) 5 µM: single biological repeat; for IC50: early (II/III) gametocytes, luciferase, 48 h, read-out: EG IC50
Experimental: (§1) All the complexes were tested for their early- and late-stage gametocyte activity in a dual-point assay (1 μM and 5 μM). […]
(§2) 1.5.In vitro activity against gametocyte stages
(§3) PfNF54 gametocytes were prepared and isolated according to the method reported by Reader […]
(§4) The in vitro gametocyte activity of the synthesized complexes was determined using a luciferase reporter line-based assay.
(§5) NF54-PfS16-GFP-Luc parasites were used for the stage-specific assessment of gametocytocidal activity. Early-stage gametocyte (stage I-III) experiments were performed on day 5 (representing >90% of early-stage and late-stage gametocyte (stages IV/V) experiments were performed on day 10. In each experiment, assays were set up with the use of 2-3% […]
(§6) Luciferase activity was determined in 30 µL parasite lysates by adding luciferin substrate (30 µL) (Promega Luciferase Assay System) at room temperature. […]

[4] = test system: late-stage gametocytes (NF54-PfS16-GFP-Luc); experiment: Luciferase reporter assay, late-stage gametocytes; assay type: cell-based, Plasmodium falciparum; conditions: for LG (% inhibition) 1 µM / LG (% inhibition) 5 µM: single biological repeat
Experimental: as §1, §2, §3, §4, §5, §6

PfNF54 ABS parasites = experiment: SYBR Green I-based proliferative assay, PfNF54 ABS parasites; assay type: cell-based, Plasmodium falciparum; conditions: for IC50: ABS, SYBR Green I, 96 h, mean ± S.E., N = 3 (no S.E.: N = 1)
Experimental: (§7) The parasites were incubated under drug […]
(§8) incubation, parasite survival was determined by adding equal volumes of parasite suspension (100 µL) and SYBR Green I lysis buffer (0.2% µL/mL of 10 000x SYBR Green I, 20 mM Tris-HCl, pH 7.5, 5 mM EDTA, 0.008% saponin (w/v) and 0.08% Triton x-100). This was incubated for 1 hour at room temperature in the dark. […]

[5] = Single-point microsomal metabolic stability, mouse; assay type: in vitro ADME; conditions: mouse liver microsomes, 1 µM
Experimental: (§9) 1.8. Microsomal metabolic stability studies […]
(§10) rat IGS, Xenotech), and mouse (male mouse CD1, Xenotech) liver microsomes (0.4 mg/ml) for 30 min at 37 °C. Reactions were quenched by adding ice-cold acetonitrile containing […]
(§11) disappearance of the parent compound. Half-life, clearance, and hepatic excretion ratios were determined using standard equations.6,7 Propranolol. […]

[6] = Single-point microsomal metabolic stability, human; assay type: in vitro ADME; conditions: human liver microsomes, 1 µM
Experimental: as §9, §10, §11

PfK1 ABS parasites = assay type: cell-based, Plasmodium falciparum; conditions: for IC50: ABS, SYBR Green I, 96 h, mean ± S.E.; for RI (resistance index): RI = PfK1 IC50/PfNF54 IC50
Experimental: as §7, §8

[7] = late (IV/V) gametocytes, luciferase, 48 h, read-out: LG IC50

SMILES	Epa1 (Cyclic voltammetry)	Epc1 (Cyclic voltammetry)	ABS (% inhibition) 1 µM (ABS parasites) [% inhibition]	ABS (% inhibition) 5 µM (ABS parasites) [% inhibition]	IC50 [2] [µM]	EG (% inhibition) 1 µM [3] [% inhibition]	EG (% inhibition) 5 µM [3] [% inhibition]	IC50 [3] [µM]	LG (% inhibition) 1 µM [4] [% inhibition]	LG (% inhibition) 5 µM [4] [% inhibition]	IC50 [4, 7] [µM]	IC50 (PfNF54 ABS parasites) [µM]	also measured
CC(C)(C)c1cc[n+]2c(c1)-c1cc(C(C)(C)C)cc[n+]1[Pt-2]21[O+]=C(c2ccccc2)N=C(N(CCO)CCO)[S]1.[Cl-] [C1]	–1.233 V	–1.127 V	–	–	–	–	–	–	–	–	–	–	Aqueous solubility pH 6.5 [1]: 95 μM
OCCN(CCO)C1=NC(c2ccccc2)=[O+][Pt-2]2([S]1)[n+]1ccc(O)cc1-c1cc(O)cc[n+]12.[Cl-] [C5]	–	–	0.0	11.0	> 50	0.0	0.0	> 20	0.0	0.5	> 20	> 5	–
OCCN(CCO)C1=NC(c2ccccc2)=[O+][Pt-2]2([S]1)[n+]1ccc(Cl)cc1-c1cc(Cl)cc[n+]12.[Cl-] [C7]	–	–	2.7	57.3	> 50	2.2	4.1	> 20	0.0	0.4	> 20	> 5	–
OCCN(CCO)C1=NC(c2ccccc2)=[O+][Pt-2]2([S]1)[n+]1ccc(C(F)(F)F)cc1-c1cc(C(F)(F)F)cc[n+]12.[Cl-] [C8]	–0.710 V	–0.607 V	10.6	29.9	> 50	26.2	50.0	> 20	80.6	85.8	0.38	> 5	Microsomal metabolic stability (% remaining after 30 min) Mouse [5]: 46 % remaining; Microsomal metabolic stability (% remaining after 30 min) Human [6]: 47 % remaining; IC50 ([4]; gametocyte stage not specified, read-out: gametocidal activity IC50): < 5 µM; E1/2 (Cyclic voltammetry; half-wave potential corrected to ferrocene): –1.076 V vs Fe/Fe^+; Epc2 (Cyclic voltammetry; second nonreversible reduction): –1.272 V vs Ag/Ag^+
CNC(=O)c1cc[n+]2c(c1)-c1cc(C(=O)NC)cc[n+]1[Pt-2]21[O+]=C(c2ccccc2)N=C(N(CCO)CCO)[S]1.[Cl-] [C9]	–	–	0.0	24.5	> 50	0.0	4.5	> 20	0.0	2.4	> 20	> 5	–
COC(=O)c1cc[n+]2c(c1)-c1cc(C(=O)OC)cc[n+]1[Pt-2]21[O+]=C(c2ccccc2)N=C(N(CCO)CCO)[S]1.[Cl-] [C10]	–	–	7.11	17.3	> 50	3.7	4.2	> 20	0.6	6.1	> 20	> 5	Aqueous solubility pH 6.5 [1]: <5 μM
Cc1ccc(C2=[O+][Pt-2]3([S]C(N(CCO)CCO)=N2)[n+]2ccc(C(C)(C)C)cc2-c2cc(C(C)(C)C)cc[n+]23)cc1.[Cl-] [C11]	–1.239 V	–1.128 V	–	–	–	–	–	–	–	–	–	–	–
COc1ccc(C2=[O+][Pt-2]3([S]C(N(CCO)CCO)=N2)[n+]2ccc(C(C)(C)C)cc2-c2cc(C(C)(C)C)cc[n+]23)cc1.[Cl-] [C12]	–1.247 V	–1.133 V	–	–	–	–	–	–	–	–	–	–	–
CC(C)(C)c1ccnc(-c2cc(C(C)(C)C)ccn2)c1.OCCN(CCO)C(=S)N=C([O][Pt+])c1ccc(Cl)cc1.[Cl-] [C13]	–1.233 V	–1.119 V	–	–	–	–	–	–	–	–	–	–	–
Cc1ccc(-c2ccc(C)cn2)nc1.OCCN(CCO)C(=S)N=C([O][Pt+])c1ccccc1.[Cl-] [C14]	–	–	–	–	> 50	0.0	0.0	–	39.4	56.6	–	0.241 ± 0.04	IC50 (PfK1 ABS parasites): 0.886 ± 0.059 µM; RI (resistance index) (PfK1 ABS parasites): 3.7; fold improvement in PfNF54 activity compared to C2 (PfNF54 ABS parasites; vs 4,4'-dimethyl complex C2): 5 fold and 6 fold
Cc1cccc(-c2cccc(C)n2)n1.OCCN(CCO)C(=S)N=C([O][Pt+])c1ccccc1.[Cl-] [C15]	–	–	0.0	89.6	5	2.8	43.9	9.51	54.8	84.0	1.41	2.91	IC50 (PfK1 ABS parasites): 2.76 µM; RI (resistance index) (PfK1 ABS parasites): 0.9; fold decrease in PfNF54 activity compared to C2 (PfNF54 ABS parasites; vs 4,4'-dimethyl complex C2): 2 fold
COC(=O)[C@H]1[C@H]2C[C@@H]3c4[nH]c5cc(OC)ccc5c4CCN3C[C@H]2C[C@@H](OC(=O)c2cc(OC)c(OC)c(OC)c2)[C@@H]1OC [Reserpine, reference compound]	–	–	–	–	–	–	–	–	–	–	–	–	solubility at 24 h ([1]; phosphate buffer): < 5 µM
